Data set [1] addresses 5-HT transporter (Rattus norvegicus, UniProt P31652). The data set can be described thus: Rat Brain 3H-Paroxetine Binding Assay (RB 5HT Transporter). Particulars: read-out: RB-5HT Transporter % inhibition @ 1 μM concentration.
Data set [2] deals with T1, human 5-HT1A receptors (Homo sapiens, UniProt P08908).
T1 construct: expressed in transfected cells; host or cells: CHO cells (stably transfected)
T1 sequence (P08908 1-422): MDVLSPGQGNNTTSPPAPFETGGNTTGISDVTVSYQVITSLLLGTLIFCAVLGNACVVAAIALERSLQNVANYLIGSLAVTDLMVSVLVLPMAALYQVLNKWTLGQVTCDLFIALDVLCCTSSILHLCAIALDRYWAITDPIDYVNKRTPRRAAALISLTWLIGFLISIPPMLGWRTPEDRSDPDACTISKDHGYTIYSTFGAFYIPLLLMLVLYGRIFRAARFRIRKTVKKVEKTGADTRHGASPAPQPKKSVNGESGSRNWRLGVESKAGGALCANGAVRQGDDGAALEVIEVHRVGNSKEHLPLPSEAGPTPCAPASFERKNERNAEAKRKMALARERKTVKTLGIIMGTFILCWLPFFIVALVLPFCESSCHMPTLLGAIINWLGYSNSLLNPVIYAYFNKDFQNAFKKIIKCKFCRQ
Nature of the data set: Displacement of [3H] 8-OH-DPAT from the 5-HT1A serotonin receptor. Type of data set: binding. Particulars: 1 μM concentration; starred cells of the 5-HT1A column. On the technique in general: Displacement assays read how much labelled ligand stays bound in the presence of the test substance.

Data set [3] concerns the target Human 5-HT Transporter (Homo sapiens, UniProt P31645). The data set can be described thus: Inhibition of 3H-5-HT Uptake by Cells Possessing the Human 5-HT Transporter (HC 5HT Transporter), Jar cells. The conditions noted are these: HC-5HTC Transporter Ki (nM), Jar cells treated with staurosporine.

Sequence of Human 5-HT Transporter (P31645 whole entry): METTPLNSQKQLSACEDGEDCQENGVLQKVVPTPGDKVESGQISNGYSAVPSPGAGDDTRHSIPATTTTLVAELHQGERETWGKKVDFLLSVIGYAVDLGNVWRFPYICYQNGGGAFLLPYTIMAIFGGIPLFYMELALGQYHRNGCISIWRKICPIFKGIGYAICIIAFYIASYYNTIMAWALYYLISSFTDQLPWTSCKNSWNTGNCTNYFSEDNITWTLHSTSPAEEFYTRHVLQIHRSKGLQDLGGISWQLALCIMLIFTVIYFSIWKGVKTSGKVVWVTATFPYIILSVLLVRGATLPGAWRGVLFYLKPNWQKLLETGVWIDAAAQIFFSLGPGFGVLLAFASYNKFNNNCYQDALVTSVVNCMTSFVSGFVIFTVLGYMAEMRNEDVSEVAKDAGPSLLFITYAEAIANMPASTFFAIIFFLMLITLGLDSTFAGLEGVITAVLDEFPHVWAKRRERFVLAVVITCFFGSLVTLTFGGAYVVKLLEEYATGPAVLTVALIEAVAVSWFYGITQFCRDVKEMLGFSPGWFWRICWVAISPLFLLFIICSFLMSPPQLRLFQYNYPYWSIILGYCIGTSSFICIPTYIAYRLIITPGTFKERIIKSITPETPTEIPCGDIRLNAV
Sequence of 5-HT transporter (P31652 whole entry): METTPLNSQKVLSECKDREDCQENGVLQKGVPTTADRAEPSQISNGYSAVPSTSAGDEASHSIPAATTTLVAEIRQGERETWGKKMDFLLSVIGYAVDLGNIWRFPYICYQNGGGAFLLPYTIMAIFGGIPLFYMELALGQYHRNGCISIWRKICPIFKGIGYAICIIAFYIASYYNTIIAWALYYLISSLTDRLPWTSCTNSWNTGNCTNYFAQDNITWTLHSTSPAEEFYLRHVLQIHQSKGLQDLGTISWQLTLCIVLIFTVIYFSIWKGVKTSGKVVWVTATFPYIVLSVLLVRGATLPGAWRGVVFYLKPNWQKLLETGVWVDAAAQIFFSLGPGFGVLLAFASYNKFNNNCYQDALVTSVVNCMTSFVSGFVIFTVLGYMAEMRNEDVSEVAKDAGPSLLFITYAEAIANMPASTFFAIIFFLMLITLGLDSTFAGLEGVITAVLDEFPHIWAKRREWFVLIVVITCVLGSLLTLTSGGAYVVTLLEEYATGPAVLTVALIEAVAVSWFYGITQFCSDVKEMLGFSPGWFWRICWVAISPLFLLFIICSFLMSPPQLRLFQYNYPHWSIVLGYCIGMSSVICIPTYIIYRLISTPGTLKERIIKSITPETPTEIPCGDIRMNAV

One may read the Ki as a dissociation constant, usually derived from enzyme kinetics or from competition with a known ligand. Low readings indicate a stronger hold on the target, high ones a looser hold on the target. `COc1ccc2occ(CCN3CCN(c4cc(C(C)C)cc5cccnc45)CC3)c2c1` [Compound 24, 8-{4-[2-(5-methoxy-1-benzofuran-3-yl)ethyl]-1-piperazinyl}-6-isopropyl-quinoline]: the values for the inhibition at 1 µM in data set [1] and in data set [2] were 24% and 46%, respectively. In addition, the inhibitory constant (Ki) in data set [3] was found to be 3730 nM.
The term melting point denotes the temperature of the solid-liquid transition. For the compound `Fc1ccc2scc([C@H]3CC[C@H](N4CCN(c5ccc(Cl)c6cccnc56)CC4)CC3)c2c1` [Compound 52, 5-chloro-8-{4-[4-trans(5-fluoro-1-benzothien-3-yl)cyclohexyl]piperazin-1-yl}quinoline], the melting point lay within 195 to 197 °C. This compound also gave an inhibition at 1 µM in data set [2] of 42%. This compound also displayed an inhibition constant Ki in data set [3] of 751 nM.

The record behind these values is patent US20090054454A1, “BENZOFURANYL- AND BENZOTHIENYL- PIPERAZINYL QUINOLINES AND METHODS OF THEIR USE” (priority 2007, published 2009).
